These results are taken from publication PMC7143284, “A Phenotarget Approach for Identifying an Alkaloid Interacting with the Tuberculosis Protein Rv1466” (Marine Drugs, 2020).

This experiment deals with Rv1466 (Mycobacterium tuberculosis, UniProt O53157). Put plainly: […]; bound species is […] Da (half of the disulfide dimer). In kind it is binding.
Sequence of Rv1466 (O53157 1-115 limits assumed): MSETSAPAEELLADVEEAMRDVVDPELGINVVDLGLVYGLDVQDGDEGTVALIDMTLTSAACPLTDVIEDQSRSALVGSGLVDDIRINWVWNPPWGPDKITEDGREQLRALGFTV

With `COc1ccc(-c2nc(N)n(C)c2SSc2c(-c3ccc(OC)cc3)nc(N)n2C)cc1` [polycarpine], the Kd – broadly, the concentration at which binding is half-saturated – turned out to be 5.3 ± 0.4 µM.
